Reference: patent US7179825B2, “Retinoic acid mimetic anilides” (Janssen Pharmaceutica N.V., priority 1997, dated 2007)

Tests used:
[1] = test system: metabolism of retinoic acid in human breast cancer cells; experiment: Inhibition of retinoic acid (RA) metabolism (Example C.1); type: cell-based; settings: MCF-7 human breast cancer cells, 3H-RA as substrate, concentration needed to reduce the amount of metabolites to 50% of the control
Outline: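 MCF-7 cells, pre-stimulated with RA the day before, incubated with ³H-RA substrate and test compound in 1% DMSO. Polar ³H-metabolites separated from unmetabolized RA and counted by scintillation. IC50 is the concentration cutting metabolite formation to 50% of control, with blank run alongside.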

Ovariectomized rats = experiment: Vaginal keratinization test on ovariectomized rats (Example C.2); type: in vivo; settings: estradiol undecylate induced keratinization, per os once daily on days 1-3, active dose = 50% of rats show complete suppression
Outline: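 Ovariectomized rats given s.c. estradiol undecylate (100 μg per 100 g body weight in sesame oil), then oral compound once daily on days 1-3 (vehicle PEG 200). Vaginas assessed histologically one day after last dose; lowest active dose (mg/kg) is the dose giving complete keratinization suppression in 50% of rats.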

Compound | IC50 [1] | IC50 ([1]; MCF7) | LAD (lowest active dose) (Ovariectomized rats) | minimal effective dose (Ovariectomized rats; Rattus norvegicus, po, read-out: LAD (lowest active dose))
CCC(CC)C(c1ccc(NC(=O)Cc2ccc(C)c(C)c2)cc1)n1cncn1 (racemic) [Compound 77] | 0.332 nM | – | 2.50 mg/kg | –
C/C(C(=O)Nc1ccc(C(C(C)C)n2ccnc2)cc1)=C(/C)c1ccccc1 (racemic) [Compound 176] | 18.7 nM | – | >10.00 mg/kg | –
CC(C)C(c1ccc(NC(=O)N(C)Cc2ccccc2)cc1)n1ccnc1 (racemic) [Compound 263] | 4.66 nM | – | >10.00 mg/kg | –
CCC(CC)C(c1ccc(NC(=O)Cc2ccc(OC)cc2OC)cc1)n1ccnc1 (racemic) [Compound 126] | < 0.01 nM | – | 2.50 mg/kg | –
CCC(CC)C(c1ccc(NC(=O)Cc2ccc(O)c(OC)c2)cc1)n1ccnc1.O=C(O)C(=O)O (racemic) [Compound 97] | 1.32 nM | – | 2.50 mg/kg | –
CC(C)C(c1ccc(NC(=O)Cc2ccsc2)cc1)n1ccnc1 (racemic) [Compound 245] | 2.79 nM | – | 10.00 mg/kg | –
CCC(CC)C(c1ccc(NC(=O)Cc2cc(C)ccc2C)cc1)n1ccnc1 (racemic) [Compound 106] | 1.69 nM | – | 2.50 mg/kg | –
CC(C)C(c1ccc(NC(=O)c2ccc(Br)o2)cc1)n1ccnc1 (racemic) [Compound 220] | 1.48 nM | – | 20.00 mg/kg | –
C/C(=C\c1ccccc1)C(=O)Nc1ccc(C(C(C)C)n2cncn2)cc1 (racemic) [Compound 154, (±)-(E)-2-methyl-N-[4-[2-methyl-1-(1H-1,2,4-triazol-1-yl)propyl]phenyl]-3-phenyl-2-propenamide] | – | 4.14 nM | – | 5 mg/kg
CCOc1ccc(CCC(=O)Nc2ccc(C(C(CC)CC)n3ccnc3)cc2)cc1 (racemic) [Compound 39] | 0.104 nM | – | 0.60 mg/kg | –
CC(C)C(c1ccc(NC(=O)c2cccc(F)c2)cc1)n1ccnc1 (stereo not drawn) [Compound 221] | 1.08 nM | – | 10.00 mg/kg | –
CCC(CC)C(c1ccc(NC(=O)Cc2ccc(C)c(OC)c2)cc1)n1cncn1 (racemic) [Compound 84] | 1.74 nM | – | >2.50 mg/kg | –
CCC(CC)C(c1ccc(NC(=O)C2Oc3ccccc3O2)cc1)n1ccnc1 (stereo not drawn) [Compound 34] | 1.03 nM | – | 2.50 mg/kg | –
CC(C)C(c1ccc(NC(=O)C2CC2)cc1)n1ccnc1 (stereo not drawn) [Compound 199] | 7.82 nM | – | >10.00 mg/kg | –
CCC(CC)C(c1ccc(NC(=O)COc2ccccc2OC)cc1)n1ccnc1 (racemic) [Compound 37] | 1 nM | – | 5.00 mg/kg | –
CCC(CC)C(c1ccc(NC(=O)Cc2ccc(OCc3cccnc3)cc2)cc1)n1ccnc1 (stereo not drawn) [Compound 130] | 0.0109 nM | – | 5.00 mg/kg | –
CCC(CC)C(c1ccc(NC(=O)Cc2ccc(Cl)cc2OC)cc1)n1ccnc1 (racemic) [Compound 113] | 0.852 nM | – | >2.50 mg/kg | –
CC(C)C(c1ccc(NC(=O)Cc2ccc(Cl)cc2)cc1)n1cncn1 (stereo not drawn) [Compound 131] | 4.1 nM | – | 5.00 mg/kg | –
CCC(CC)C(c1ccc(NC(=O)Cc2ccc(C)cc2)cc1)n1ccnc1 (racemic) [Compound 94] | 1.06 nM | – | 5.00 mg/kg | –

Second part, led by results:

IC50 [1] | IC50 ([1]; MCF7) | Compound | LAD (lowest active dose) (Ovariectomized rats) | minimal effective dose (Ovariectomized rats; Rattus norvegicus, po, read-out: LAD (lowest active dose))
0.133 nM | – | CCC(CC)C(c1ccc(NC(=O)Nc2ccc(OC)c(OC)c2)cc1)n1cncn1 (racemic) [Compound 718] | 2.50 mg/kg | –
6.51 nM | – | COc1cccc(/C=C(\C)C(=O)Nc2ccc(C(C(C)C)n3ccnc3)cc2)c1 (stereo not drawn) [Compound 584] | 10.00 mg/kg | –
2.25 nM | – | CC(C)C(c1ccc(NC(=O)Nc2ccc(F)cc2F)cc1)n1ccnc1 (racemic) [Compound 734] | 10.00 mg/kg | –
149 nM | – | CCC/C(=C\c1ccccc1)C(=O)Nc1ccc(C(C(C)C)n2ccnc2)cc1 (racemic) [Compound 464] | >20.00 mg/kg | –
0.664 nM | – | COc1cc(CC(=O)Nc2ccc(C(C(C)N(C)C)n3ccnc3)cc2)ccc1Cl (single isomer, unassigned) [Compound 311] | 2.50 mg/kg | –
23.9 nM | – | C/C(=C\c1ccc2[nH]c(=O)ccc2c1)C(=O)Nc1ccc(C(C(C)C)n2ccnc2)cc1 (racemic) [Compound 598] | >10.00 mg/kg | –
31.3 nM | – | C/C(=C\c1ccc(C(F)(F)F)cc1)C(=O)Nc1ccc(C(C(C)C)n2ccnc2)cc1 (stereo not drawn) [Compound 580] | 10.00 mg/kg | –
> 100 nM | – | CC(C(=O)Nc1ccc(C(C(C)C)n2ccnc2)cc1)=C(c1ccccc1)c1ccsc1 (mixture of isomers) [Compound 518] | >10.00 mg/kg | –
1.26 nM | – | Cc1ccc(CC(=O)Nc2ccc(C(C(C)N(C)C)n3ccnc3)cc2)cc1C (single isomer, unassigned) [Compound 306] | >2.50 mg/kg | –
20 nM | – | C/C(=C\c1ccc(C)o1)C(=O)Nc1ccc(C(C(C)C)n2ccnc2)cc1 (racemic) [Compound 601] | 10.00 mg/kg | –
0.137 nM | – | COc1cc(CC(=O)Nc2ccc(C(C(C)N(C)C)n3cncn3)cc2)cc(OC)c1OC (single isomer, unassigned) [Compound 292] | >2.50 mg/kg | –
> 100 nM | – | CC(C)C(c1ccc(NC(=O)Cc2cccc(Cl)c2)cc1)n1ccnc1 (racemic) [Compound 652] | 10.00 mg/kg | –
> 1000 nM | – | C/C(=C\c1ccccc1)C(=O)Nc1ccc(C(c2ccncc2)C(C)C)cc1 (racemic) [Compound 681] | >20.00 mg/kg | –
8.66 nM | – | CC(C)C(c1ccc(NC(=O)C(O)c2ccc(Cl)cc2)cc1)n1ccnc1 (stereo not drawn) [Compound 669] | 5.00 mg/kg | –
6.75 nM | – | CCCCCC(C)C(c1ccc(NC(=O)Cc2ccc(OC)c(OC)c2)cc1)n1ccnc1 (single isomer, unassigned) [Compound 385] | >2.50 mg/kg | –
2.4 nM | – | O=C(Nc1ccc(C(c2cccc(C(F)(F)F)c2)n2ccnc2)cc1)Nc1cc(F)ccc1F (racemic) [Compound 709] | 5.00 mg/kg | –
5 nM | – | C=C(C)C(=O)Nc1ccc(C(C(C)C)n2ccnc2)cc1 (racemic) [Compound 597] | >10.00 mg/kg | –
2.34 nM | – | CC(C)C(c1ccc(NC(=O)Cc2cccc(C(F)(F)F)c2)cc1)n1ccnc1 (racemic) [Compound 654] | 5.00 mg/kg | –
2.17 nM | – | CCC(C)C(c1ccc(NC(=O)Cc2ccc(OC)c(OC)c2)cc1)n1cncn1 (mixture of isomers) [Compound 640] | >2.50 mg/kg | –
7.21 nM | – | C/C(=C\c1ccccc1F)C(=O)Nc1ccc(C(C(C)C)n2ccnc2)cc1 (racemic) [Compound 585] | 10.00 mg/kg | –
17.7 nM | – | CC(=Cc1ccccc1)C(=O)Nc1ccc(C(C(C)C)n2ccnc2)cc1 (single isomer, unassigned) [Compound 459] | 20.00 mg/kg | –
1.97 nM | – | CC(C(c1ccc(NC(=O)CN2CCN(C)CC2)cc1)n1ccnc1)N(C)C (single isomer, unassigned) [Compound 353] | >5.00 mg/kg | –
0.146 nM | – | CCC(CC)C(O)(c1ccc(NC(C)=O)cc1)c1cncn1C (racemic) [Compound 772] | >5.00 mg/kg | –
6.53 nM | – | CCOc1ccc(CC(=O)Nc2ccc(C(C(C)N(C)C)n3cncn3)cc2)cc1OCC (single isomer, unassigned) [Compound 293] | >2.50 mg/kg | –
1.95 nM | – | CCCC(C)C(c1ccc(NC(=O)/C(C)=C/c2ccccc2)cc1)n1ccnc1 (single isomer, unassigned) [Compound 482] | 10.00 mg/kg | –
8.77 nM | – | CCCCC(CC)C(c1ccc(NC(=O)C(C)=Cc2ccccc2)cc1)n1ccnc1 (mixture of isomers) [Compound 493] | >2.50 mg/kg | –
